In patent US4296105A, “Derivatives of doxorubicine, their preparation and use” (Institut International de Pathologie Cellulaire et …, priority 1978, dated 1981):

How the values were obtained:
[1] = Acute toxicity in mice (50% lethal dose, i.v. injection 2 consecutive days); format: in vivo
leukemia L1210 = test: Antitumoral activity in DBA2 mice grafted subcutaneously with leukemia L1210 cells; format: in vivo
Method: The tests were made with mice weighing 20 to 22 g grafted subcutaneously with 10^6 cells of leukemia L1210 and treated with daily doses between 5 and 60 mg/kg i.v.
At equitoxic dose, doxorubicine induces 78% ILS, 16% of surviving animals at long term and an average tumoral volume of 24 mm^3 on day 12.

[2] = DBA2 mice 20-22 g, 10^6 L1210 cells s.c., i.v. days 1 and 2, 48 mg/kg a day
[3] = DBA2 mice, L1210 s.c., equitoxic dose

COc1cccc2c1C(=O)c1c(O)c3c(c(O)c1C2=O)C[C@@](O)(C(=O)CO)C[C@@H]3O[C@H]1C[C@H](NC(=O)[C@@H](N)CC(C)C)[C@H](O)[C@H](C)O1 [N-(L-leucyl)doxorubicine]
LD50 ([1]; mouse, in vivo, iv): ~67 mg/kg
LD50 relative to doxorubicine (times more than for doxorubicine) ([1]; versus doxorubicine): 6 times
increase in life span (ILS) (leukemia L1210; [2]): 131%
surviving animals at long term (leukemia L1210; [2]): 33%
average tumoral volume on day 12 (leukemia L1210; [2]): 0.01 mm^3

COc1cccc2c1C(=O)c1c(O)c3c(c(O)c1C2=O)C[C@@](O)(C(=O)CO)C[C@@H]3O[C@H]1C[C@H](N)[C@H](O)[C@H](C)O1 [doxorubicine]
increase in life span (ILS) (leukemia L1210; [3]): 78%
surviving animals at long term (leukemia L1210; [3]): 16%
average tumoral volume on day 12 (leukemia L1210; [3]): 24 mm^3
